The source made the active and inactive calls.

Assay [1] deals with Dual specificity tyrosine-phosphorylation-regulated kinase 1A (Rattus norvegicus, UniProt Q63470). It counts as biochemical, Homo sapiens.
Assay [2] deals with T1, Sentrin-specific protease 7 (Homo sapiens, UniProt Q9BQF6).
T1 sequence (Q9BQF6 whole entry): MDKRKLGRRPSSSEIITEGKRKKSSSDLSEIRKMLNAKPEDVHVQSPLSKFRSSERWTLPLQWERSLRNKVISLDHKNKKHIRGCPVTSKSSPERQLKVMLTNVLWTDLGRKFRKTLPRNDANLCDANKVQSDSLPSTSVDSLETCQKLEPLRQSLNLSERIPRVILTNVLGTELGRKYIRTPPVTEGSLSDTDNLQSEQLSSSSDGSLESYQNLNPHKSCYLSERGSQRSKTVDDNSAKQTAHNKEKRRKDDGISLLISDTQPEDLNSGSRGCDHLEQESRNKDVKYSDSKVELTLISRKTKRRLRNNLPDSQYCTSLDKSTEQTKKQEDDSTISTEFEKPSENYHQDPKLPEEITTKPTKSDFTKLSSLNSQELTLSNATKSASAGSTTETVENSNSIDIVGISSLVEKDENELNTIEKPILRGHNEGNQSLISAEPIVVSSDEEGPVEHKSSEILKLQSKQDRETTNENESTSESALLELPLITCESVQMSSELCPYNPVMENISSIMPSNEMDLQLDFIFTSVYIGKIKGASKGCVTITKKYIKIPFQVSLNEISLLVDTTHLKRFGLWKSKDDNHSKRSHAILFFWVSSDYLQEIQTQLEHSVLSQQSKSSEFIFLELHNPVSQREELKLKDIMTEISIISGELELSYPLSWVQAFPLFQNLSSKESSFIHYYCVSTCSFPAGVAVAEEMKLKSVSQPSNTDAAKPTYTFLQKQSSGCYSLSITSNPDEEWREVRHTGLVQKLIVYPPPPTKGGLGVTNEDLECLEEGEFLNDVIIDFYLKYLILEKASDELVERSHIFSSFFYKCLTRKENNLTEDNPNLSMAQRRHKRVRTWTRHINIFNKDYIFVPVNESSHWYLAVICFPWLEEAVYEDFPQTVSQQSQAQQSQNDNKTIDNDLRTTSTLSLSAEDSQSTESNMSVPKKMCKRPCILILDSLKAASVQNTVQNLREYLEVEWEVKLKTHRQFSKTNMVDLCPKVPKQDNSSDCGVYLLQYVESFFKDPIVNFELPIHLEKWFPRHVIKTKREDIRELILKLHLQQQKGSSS
It counts as functional.

The target in assay [3] is T2, Sentrin-specific protease 8 (Homo sapiens, UniProt Q96LD8).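 Also: luminescence read-out of SENP8 inhibition, dose-response confirmation following an ultra-high-throughput screen.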
T2 sequence (Q96LD8 whole entry): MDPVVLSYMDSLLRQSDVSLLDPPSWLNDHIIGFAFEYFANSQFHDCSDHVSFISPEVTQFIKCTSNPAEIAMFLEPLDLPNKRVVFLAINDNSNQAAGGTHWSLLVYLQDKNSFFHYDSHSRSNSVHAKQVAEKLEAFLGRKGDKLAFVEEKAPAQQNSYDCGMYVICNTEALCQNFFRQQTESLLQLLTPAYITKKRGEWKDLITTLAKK
It counts as functional.

For assay [4], the target named is T3, Sentrin-specific protease 6 (Homo sapiens, UniProt Q9GZR1).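 Also: Luminescence-based dose-response confirmatory assay of SENP6 inhibition, following up an ultra-high-throughput screen.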
T3 sequence (Q9GZR1 whole entry): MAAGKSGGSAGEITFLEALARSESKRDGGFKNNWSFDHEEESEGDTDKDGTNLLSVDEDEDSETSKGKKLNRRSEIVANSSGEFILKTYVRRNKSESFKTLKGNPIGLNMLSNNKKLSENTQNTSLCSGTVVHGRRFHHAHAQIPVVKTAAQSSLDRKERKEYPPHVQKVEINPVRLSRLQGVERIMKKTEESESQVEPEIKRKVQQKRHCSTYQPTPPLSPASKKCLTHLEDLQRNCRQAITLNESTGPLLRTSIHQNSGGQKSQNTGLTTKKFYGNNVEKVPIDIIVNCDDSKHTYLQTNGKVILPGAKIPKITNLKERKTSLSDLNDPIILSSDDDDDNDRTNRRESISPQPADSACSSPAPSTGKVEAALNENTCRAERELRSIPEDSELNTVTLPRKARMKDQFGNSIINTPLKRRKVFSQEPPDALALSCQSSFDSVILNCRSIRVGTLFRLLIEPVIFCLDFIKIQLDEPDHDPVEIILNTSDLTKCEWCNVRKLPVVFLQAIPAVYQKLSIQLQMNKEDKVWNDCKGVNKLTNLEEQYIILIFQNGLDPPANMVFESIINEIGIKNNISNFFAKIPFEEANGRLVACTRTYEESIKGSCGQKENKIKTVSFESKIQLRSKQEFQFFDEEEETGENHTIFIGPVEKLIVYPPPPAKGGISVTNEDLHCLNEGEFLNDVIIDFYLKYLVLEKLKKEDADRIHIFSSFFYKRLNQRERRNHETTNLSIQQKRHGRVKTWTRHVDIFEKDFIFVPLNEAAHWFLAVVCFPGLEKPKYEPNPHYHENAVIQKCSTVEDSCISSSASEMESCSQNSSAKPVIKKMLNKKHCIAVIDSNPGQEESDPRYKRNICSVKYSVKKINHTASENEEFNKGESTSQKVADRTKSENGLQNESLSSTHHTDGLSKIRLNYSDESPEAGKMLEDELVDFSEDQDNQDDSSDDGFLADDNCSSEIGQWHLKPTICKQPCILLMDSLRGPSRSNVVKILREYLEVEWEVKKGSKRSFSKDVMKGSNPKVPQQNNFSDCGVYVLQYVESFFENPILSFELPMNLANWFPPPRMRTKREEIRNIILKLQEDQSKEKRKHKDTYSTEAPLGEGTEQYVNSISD
It counts as functional.

The next assay addresses T4, Caspase-3 (Homo sapiens, UniProt P42574).
T4 sequence (P42574 whole entry): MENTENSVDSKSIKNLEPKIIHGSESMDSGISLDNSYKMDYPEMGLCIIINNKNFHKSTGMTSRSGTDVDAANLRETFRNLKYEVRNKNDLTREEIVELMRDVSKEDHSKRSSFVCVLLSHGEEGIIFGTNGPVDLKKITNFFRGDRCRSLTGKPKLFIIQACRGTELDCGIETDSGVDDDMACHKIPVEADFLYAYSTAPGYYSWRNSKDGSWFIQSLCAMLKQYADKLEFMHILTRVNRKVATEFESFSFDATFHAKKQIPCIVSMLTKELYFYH
It is filed as functional.

The next assay concerns the target Prothrombin (Bos taurus, UniProt P00735). The assay is described as follows: thrombin inhibition, dose response, biochemical, fluorescence polarization, uHTS hits (AID 602369). It is filed as functional. Background: In fluorescence polarisation assays a small probe gives low polarisation when free and higher when bound to something large.
For assay [5], the target named is 26S proteasome non-ATPase regulatory subunit 14 (Homo sapiens, UniProt O00487). Kind of assay: inhibition of proteasome subunit RPN11 – biochemical, fluorescence polarization, uHTS hits, confirmation (AID 602368). It is filed as functional.
In assay [6] the target is 72 kDa type IV collagenase (Homo sapiens, UniProt P08253). Kind of assay: Dose Response validation of uHTS RPN11 inhibitor hits using a MMP-2 Fluorescence assay. It is filed as functional.
Another assay addresses T5, Cysteine protease ATG4B (Homo sapiens, UniProt Q9Y4P1).
T5 sequence (Q9Y4P1 whole entry): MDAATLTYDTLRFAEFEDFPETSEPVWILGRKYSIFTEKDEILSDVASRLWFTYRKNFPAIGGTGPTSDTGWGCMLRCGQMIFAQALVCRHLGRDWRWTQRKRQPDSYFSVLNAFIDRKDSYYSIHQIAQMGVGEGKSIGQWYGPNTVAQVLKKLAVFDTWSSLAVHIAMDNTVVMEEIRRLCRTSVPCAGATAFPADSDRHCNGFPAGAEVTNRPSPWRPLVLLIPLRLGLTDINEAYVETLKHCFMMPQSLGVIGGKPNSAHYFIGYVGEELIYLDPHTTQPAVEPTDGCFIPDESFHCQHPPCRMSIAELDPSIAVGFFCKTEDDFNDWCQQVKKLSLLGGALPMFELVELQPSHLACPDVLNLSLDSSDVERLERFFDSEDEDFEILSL
It is filed as functional.

The target in assay [7] is T6, DNA repair and recombination protein RAD54-like (Homo sapiens, UniProt Q92698).
T6 sequence (Q92698 whole entry): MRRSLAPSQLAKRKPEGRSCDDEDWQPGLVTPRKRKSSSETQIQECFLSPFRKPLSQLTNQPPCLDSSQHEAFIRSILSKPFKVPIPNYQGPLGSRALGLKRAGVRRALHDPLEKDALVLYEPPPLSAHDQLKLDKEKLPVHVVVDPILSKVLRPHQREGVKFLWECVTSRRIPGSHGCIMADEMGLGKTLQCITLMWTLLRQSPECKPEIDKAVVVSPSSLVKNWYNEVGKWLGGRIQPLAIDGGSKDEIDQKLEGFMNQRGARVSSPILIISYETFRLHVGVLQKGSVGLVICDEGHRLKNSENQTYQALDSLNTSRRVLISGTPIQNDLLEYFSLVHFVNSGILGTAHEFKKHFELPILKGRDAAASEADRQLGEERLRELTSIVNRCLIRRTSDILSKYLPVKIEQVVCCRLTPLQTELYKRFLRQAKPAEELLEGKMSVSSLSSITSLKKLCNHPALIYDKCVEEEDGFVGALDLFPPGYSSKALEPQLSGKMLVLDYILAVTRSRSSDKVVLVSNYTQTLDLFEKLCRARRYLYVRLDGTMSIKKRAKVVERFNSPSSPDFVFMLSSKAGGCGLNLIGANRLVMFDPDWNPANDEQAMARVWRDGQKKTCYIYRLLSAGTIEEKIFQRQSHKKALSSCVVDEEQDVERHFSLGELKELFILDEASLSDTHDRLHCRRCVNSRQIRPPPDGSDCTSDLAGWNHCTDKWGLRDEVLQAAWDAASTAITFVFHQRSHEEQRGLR
The assay is described as follows: inhibitors of human RAD54 branch migration, confirmation, biochemical, fluorescence, cherry-picked samples, dose series (AID 651657). It counts as functional.

The target in a further assay is Phospholipase A2 (Homo sapiens, UniProt P04054). It counts as functional.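 Also: confirmatory dose-response counterscreen on phospholipase A2, testing hits that came from an ultra-high-throughput screen for ATG4B inhibitors.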
For another assay, the system named is Vero. The assay is described as follows: cells. It is filed as functional. The note with it: Chlorocebus sabaeus.
Assay [8] can be described thus: growth suppression of PTEN-null colon cells, dose response, cell-based, HCT116 PTEN knockout (AID 1047).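 Also: HCT116 colon tumor cells with PTEN knocked out; cells exposed to compound for 60 hours before readout; potency for loss of cell viability measured by luminescence.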 It counts as functional.
Assay [9] can be described thus: growth suppression of beta-catenin-knockout colon cells, dose response, cell-based, HCT116, human colon tumor (AID 1045).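 Also: HCT116 colon tumor cells with beta catenin knocked out; cells exposed to compound for 60 hours.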 It is filed as functional.
Assay [10] in a line: cytotoxicity toward NIH3T3 fibroblasts, dose response, counter-screen, cell-based, ATP luminescence, mouse fibroblasts (AID 2010).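 Also: cells exposed to compound for about 90 hours before reading.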 It is filed as functional. (The purpose of a counterscreen is to sort out artefacts and off-target activity.)
Assay [11] can be described thus: inhibitors of intracellular T. cruzi replication, confirmation, NIH3T3 host cells, beta-gal luminescence (AID 2044).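 Also: intracellular parasites grown in NIH/3T3 mouse fibroblasts as host cells; luminescent beta-galactosidase reporter signal from transgenic T. cruzi replicating inside host cells; inhibitors lower the luminescence signal.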 It counts as functional, cell-based.

Chain of Phospholipase A2 (P04054 whole entry): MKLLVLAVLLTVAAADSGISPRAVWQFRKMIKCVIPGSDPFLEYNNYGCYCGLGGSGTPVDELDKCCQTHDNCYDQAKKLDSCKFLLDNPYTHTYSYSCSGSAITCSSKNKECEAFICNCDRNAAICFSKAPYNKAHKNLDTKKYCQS
Chain of 26S proteasome non-ATPase regulatory subunit 14 (O00487 whole entry): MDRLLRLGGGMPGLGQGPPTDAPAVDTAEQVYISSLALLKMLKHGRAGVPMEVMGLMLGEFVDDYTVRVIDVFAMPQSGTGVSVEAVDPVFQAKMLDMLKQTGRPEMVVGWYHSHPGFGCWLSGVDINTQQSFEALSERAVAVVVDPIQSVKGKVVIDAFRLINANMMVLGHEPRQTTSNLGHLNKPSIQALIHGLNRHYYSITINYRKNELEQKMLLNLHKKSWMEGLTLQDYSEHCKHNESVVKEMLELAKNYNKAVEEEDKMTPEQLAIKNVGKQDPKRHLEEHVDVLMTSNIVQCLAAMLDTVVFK
Chain of 72 kDa type IV collagenase (P08253 whole entry): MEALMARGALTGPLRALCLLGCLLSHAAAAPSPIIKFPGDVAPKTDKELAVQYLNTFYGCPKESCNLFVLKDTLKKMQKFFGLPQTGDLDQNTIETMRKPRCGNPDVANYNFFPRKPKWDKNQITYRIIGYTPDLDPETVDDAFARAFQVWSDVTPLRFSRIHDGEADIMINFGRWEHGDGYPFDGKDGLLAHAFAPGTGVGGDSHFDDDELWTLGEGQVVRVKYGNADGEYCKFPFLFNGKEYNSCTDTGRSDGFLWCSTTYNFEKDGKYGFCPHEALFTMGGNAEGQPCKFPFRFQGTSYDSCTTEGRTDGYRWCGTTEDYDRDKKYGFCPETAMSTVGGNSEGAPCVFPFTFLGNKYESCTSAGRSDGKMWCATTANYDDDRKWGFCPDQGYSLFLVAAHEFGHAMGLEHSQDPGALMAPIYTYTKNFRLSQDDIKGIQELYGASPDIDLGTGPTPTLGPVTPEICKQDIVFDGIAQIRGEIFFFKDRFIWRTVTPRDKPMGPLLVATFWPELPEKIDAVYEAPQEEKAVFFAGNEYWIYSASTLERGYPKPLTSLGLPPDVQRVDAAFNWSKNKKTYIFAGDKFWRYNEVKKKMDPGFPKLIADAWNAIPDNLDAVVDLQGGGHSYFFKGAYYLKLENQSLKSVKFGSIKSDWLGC

What is called AC50 is the midpoint of the concentration-response curve, whichever way the signal moves. For orientation: IC50 means the concentration that gives 50% inhibition. As to `COc1c(O)ccc(/C=C(\C#N)c2nc3ccccc3[nH]2)c1[N+](=O)[O-]`, the half-maximal activity concentration (AC50) in assay [1] was 2.77 µM (active). For the same molecule, the half-maximal inhibitory concentration (IC50) was 15.1 µM (active) in [2], 35.9 µM (active) in assay [3], 25.9 µM (active) in assay [4] and 31.1 µM (active) on Caspase-3.
Consider `Cc1occc1C(=O)/C(C#N)=C/c1ccc(O)c(Br)c1`, for which the half-maximal activity concentration (AC50) in [1] was 7.25 µM (active). The IC50 was 12.1 µM (active) at Prothrombin, 9.83 µM (active) in [5] and > 100 µM (inactive) in assay [6].
Take `Cc1ccc2nc3c(c(Nc4ccc5c(c4)OCCO5)c2c1)CCC3`: the IC50 at Cysteine protease ATG4B is 10.7 µM (active); on Phospholipase A2, 7.53 µM (active). Also, the AC50 in assay [7] is 54.9 µM (active).
A word on the CC50: it is the concentration giving 50% cytotoxicity. For orientation: EC50 means the concentration that produces a half-maximal response. In the case of `CCN1CCc2c(C#N)c(N3CCCCC3)nc(NCc3ccccc3)c2C1`, the CC50 in the assay with Vero was > 25 µM (active). Moreover, the half-maximal effective concentration (EC50) was 20.1 µM (active) in [8] and 17.9 µM (active) in assay [9].
As to `Cc1ccc(Sc2nnc(Cc3ccccc3)c3ccccc23)cc1`, the CC50 with Vero is > 25 µM (active). The figures for the half-maximal effective concentration (EC50) in assay [10] and in [11] were > 60 µM (not active) and 1.95 µM (active), respectively.

These data come from ChEMBL document CHEMBL1201862, “PubChem BioAssay data set” (2004).
